Our source for the speed of sound and mass density values is the NIST ThermoML archive (doi:10.1021/je800026p).

The conditions of this data set: 101.33 kPa, Liquid; for speed of sound: Sing-around technique in a fixed-path interferometer; for mass density: Vibrating tube method.

Structures are written as SMILES. ± gives the expanded uncertainty stated by the source.

On to `CCCCN` [1-butanamine], for which the speed of sound (in general, the propagation velocity of pressure waves in the medium) is, setting by setting: (288.15 K) 1296.1 ± 2.2 m/s; (293.15 K) 1273.6 ± 2.2 m/s; (298.15 K) 1250 ± 2.2 m/s; (303.15 K) 1228.9 ± 2.2 m/s; (308.15 K) 1205.7 ± 2.2 m/s. Moreover, the mass density – broadly, the mass of a sample divided by its volume – was found to be 742.865 ± 0.58 kg/m3 (288.15 K); 738.096 ± 0.58 kg/m3 (293.15 K); 733.301 ± 0.57 kg/m3 (298.15 K); 728.477 ± 0.57 kg/m3 (303.15 K); 723.625 ± 0.56 kg/m3 (308.15 K).
In the case of `CCCCCCOCCOCCO` [2-(2-hexyloxyethoxy)ethanol], the speed of sound is, setting by setting: (288.15 K) 1405.2 ± 2.2 m/s; (293.15 K) 1388.1 ± 2.2 m/s; (298.15 K) 1371.1 ± 2.2 m/s; (303.15 K) 1354.3 ± 2.2 m/s; (308.15 K) 1337.7 ± 2.2 m/s. Moreover, the mass density was determined as 936.901 ± 0.77 kg/m3 (288.15 K); 932.917 ± 0.76 kg/m3 (293.15 K); 928.926 ± 0.76 kg/m3 (298.15 K); 924.931 ± 0.75 kg/m3 (303.15 K); 920.933 ± 0.75 kg/m3 (308.15 K).
For `CCCCNCCCC` [dibutylamine], the speed of sound by setting is: (288.15 K) 1289.2 ± 2.2 m/s; (293.15 K) 1269.5 ± 2.2 m/s; (298.15 K) 1246.7 ± 2.2 m/s; (303.15 K) 1226.7 ± 2.2 m/s; (308.15 K) 1207 ± 2.2 m/s. Besides, the mass density by setting is: (288.15 K) 766.115 ± 2.1 kg/m3; (293.15 K) 762.022 ± 2.1 kg/m3; (298.15 K) 757.784 ± 2.1 kg/m3; (303.15 K) 752.284 ± 2 kg/m3; (308.15 K) 748.17 ± 2 kg/m3.
On to `CCCCN(CCCC)CCCC` [tributylamine], for which the speed of sound is recorded as 1285 ± 2.2 m/s (288.15 K); 1266.4 ± 2.2 m/s (293.15 K); 1247.6 ± 2.2 m/s (298.15 K); 1229 ± 2.2 m/s (303.15 K); 1210.4 ± 2.2 m/s (308.15 K). Moreover, the mass density (288.15 K) came to 781.336 ± 0.61 kg/m3; the mass density (293.15 K) is given as 777.632 ± 0.61 kg/m3; the mass density (298.15 K) is recorded as 773.913 ± 0.6 kg/m3; the mass density (303.15 K) amounted to 770.183 ± 0.6 kg/m3; the mass density (308.15 K) was 766.44 ± 0.6 kg/m3.
